From publication PMC6672714 (Frontiers in Physiology, 2019)
Like-named read-outs stand apart in the source and are kept apart here.

Tests used:
Assay type in all cases: cell-based, chicken
[1] = tested on: intact pituitaries (GnRH1-induced CART secretion); assay: inhibition of GnRH1-induced CART secretion in intact pituitaries, Western blot; settings: GnRH1 5 nM, 4 h, N = 3
Protocol: As described in our recent study ([Huang et al., 2014]), the intact anterior pituitaries collected from 1-week-old male chicks were washed with PBS and placed on a 48-well plate (NUNC) supplemented with 400 μl serum-free Medium 199 (Invitrogen). After 1-h incubation at 37°C, the medium was replaced by 300 μl serum-free Medium 199 containing different concentrations of chicken GnRH1 or GnRH2 (0.1–100 nM) and incubated for 4 h.
One representative set of Western blotting is shown at the bottom.

[2] = tested on: cultured chick pituitary cells (GnRH1-induced CART mRNA); settings: GnRH1 10 nM, 24 h, N = 4
Protocol: (§1) As described in our recent studies ([Huang et al., 2014]; [Mo et al., 2015]), anterior pituitaries collected from 1-week-old chicks were sliced and digested by 0.25% trypsin at 37°C for 20 min. The dispersed pituitary cells were cultured at a density of 5 × 10^5 cells/well in Medium 199 supplemented with 15% fetal bovine serum in a Corning Cell BIND 48-well plates (Corning, Tewksbury, MA) at 37°C with 5% CO2. After 24-h culture, the medium was replaced with serum-free M199 medium and the cells were treated with chicken GnRH1/GnRH2 for the duration (12–48 h) or with increasing doses (0.1–100 nM) of each peptide. The total RNA was then extracted from cultured pituitary cells and the expression of CART and β-actin assayed by qPCR.
“ND” indicates no statistical difference between the two groups. Each data point represents mean ± SEM of four replicates (N = 4). ^**p < 0.01 vs. control; ^#p < 0.01 vs. GnRH1 treatment (in the absence of drug). […] Total ERK2 in cell lysates was also examined and used as internal controls. Note: only a single band for pERK2 or total ERK2 (42 kDa) was detected in cell lysate, because ERK1 gene is lost in chicken genome ([Gerilechaogetu et al., 2009]). The representative sets of independent experimental duplicates are shown here.
“ND” indicates no statistical difference between the two groups. Each data point represents mean ± SEM of four replicates (N = 4). ^**p < 0.01 vs. control. […] The β-actin in cell lysates were also examined and used as internal controls. The representative sets of independent experimental duplicates are shown here.

[3] = tested on: cultured chick pituitary cells (CART mRNA); assay: CART mRNA expression in cultured chick pituitary cells, qPCR; settings: forskolin 2 μM, 24 h, N = 4
From the text: Chicken anterior pituitaries were collected either for cell culture, or for total RNA extraction. Total RNA was extracted from chicken tissues or cultured pituitary cells using RNAzol (Molecular Research Center, Cincinnati, OH) and reversely transcribed using M-MLV reverse transcriptase (TaKaRa). Reverse transcription (RT) samples were then used for quantitative real-time PCR (qPCR) assays to investigate the mRNA expression of target genes, as described in our recent studies ([Cai et al., 2015]; [Mo et al., 2015]).
as §1
The data were analyzed by the Student’s t-test (between two groups) or by one-way ANOVA followed by the Dunnett test in GraphPad Prism 5 (GraphPad Software, San Diego, CA). To validate our results, all experiments were repeated at least three times.
The mRNA levels of CART were normalized by β-actin and expressed as the percentage of respective controls. Each value represents the mean ± SEM of four replicates (N = 4). ^*p < 0.05, ^**p < 0.01 vs. respective control. (E) RT-PCR detection of GnRHR2 expression in cultured chick pituitary cells (three replicates). RT was performed in the presence (+) or absence (−) of reverse transcriptase. Parallel PCR of β-actin was performed to serve as an internal control.

NCCOB(c1ccccc1)c1ccccc1 [2-APB, 2-aminoethoxydiphenyl borate]
effect on GnRH1-induced CART secretion ([1]; 2-APB 100 μM): significantly inhibited

CN([C@@H](Cc1ccc(OS(=O)(=O)c2cccc3cnccc23)cc1)C(=O)N1CCN(c2ccccc2)CC1)S(=O)(=O)c1cccc2cnccc12 [KN62]
effect on GnRH1-induced CART mRNA expression ([2]; KN62 5 μM): could inhibit GnRH1-induced CART mRNA expression

Cl.c1ccc(C2CCCC2NC2=NCCCCCCCCCCC2)cc1 (stereo not drawn) [MDL12330A]
effect on GnRH1-induced CART mRNA expression ([2]; MDL12330A 20 μM): could abolish GnRH1-induced CART expression

COc1cccc(-c2cc(=O)c3ccccc3o2)c1N [PD98059]
effect on GnRH1-induced CART mRNA expression ([2]; PD98059 100 μM): could inhibit GnRH1-induced CART mRNA expression

COc1ccc2c(c1)CC[C@@H]1[C@@H]2CC[C@]2(C)[C@@H](NCCCCCCN3C(=O)C=CC3=O)CC[C@@H]12 [U73122]
effect on GnRH1-induced CART secretion ([1]; U73122 20 μM): significantly inhibited
effect on GnRH1-induced CART mRNA expression ([2]; U73122 20 μM): could inhibit GnRH1-induced CART mRNA expression

Clc1ccc(C(c2ccc(Cl)cc2)n2cc[n+](CC(OCc3ccc(Cl)cc3Cl)c3ccc(Cl)cc3Cl)c2)cc1 (stereo not drawn) [calmidazolium]
effect on GnRH1-induced CART mRNA expression ([2]; calmidazolium 1 μM): could inhibit GnRH1-induced CART mRNA expression

COc1c(C[C@@H](C)OC(=O)Oc2ccc(O)cc2)c2c3c(C[C@@H](C)OC(=O)c4ccccc4)c(OC)c(=O)c4c(O)cc(OC)c(c5c(OC)cc(O)c(c1=O)c52)c43 [calphostin C]
effect on GnRH1-induced CART mRNA expression ([2]; calphostin C 200 nM): could inhibit GnRH1-induced CART mRNA expression

C=C[C@@]1(C)CC(=O)[C@]2(O)[C@@]3(C)[C@@H](O)CCC(C)(C)[C@@H]3[C@H](O)[C@H](OC(C)=O)[C@@]2(C)O1 [forskolin, reference compound]
effect on CART mRNA expression [3]: could mimic GnRH1 action on CART expression

COC(=O)C1=C(C)NC(C)=C(C(=O)OC)C1c1ccccc1[N+](=O)[O-] [nifedipine]
effect on GnRH1-induced CART secretion ([1]; nifedipine 5 μM): significantly inhibited
effect on GnRH1-induced CART mRNA expression ([2]; nifedipine 5 μM): could inhibit GnRH1-induced CART mRNA expression

C/C=C(/C)C(=O)O[C@H]1C(C)=C2[C@H]([C@@H]1OC(=O)CCCCCCC)[C@@](C)(OC(C)=O)C[C@H](OC(=O)CCC)[C@@]1(O)[C@H]2OC(=O)[C@@]1(C)O [thapsigargin]
effect on GnRH1-induced CART mRNA expression ([2]; thapsigargin 100 nM): could inhibit GnRH1-induced CART mRNA expression
